In ChEMBL document CHEMBL1201862, “PubChem BioAssay data set” (2004):
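The compound was tested at five concentrations on cells cultured in 96-well plates, with a 48-hour exposure period. GI50: concentration for 50% inhibition of growth.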 Active and inactive are the calls of the source. No stated cut-off is given here; in the data, active = GI50 up to about 1.1 µM and inactive = higher.

Legend:
Assay in all cases: DTP human tumour cell line panel, 48 h
Hs-578T = tested on: Hs-578T
NCI-H460 = tested on: NCI-H460
T47D = tested on: T47D
LOX IMVI = tested on: LOX IMVI
OVCAR-8 = tested on: OVCAR-8
HCT-116 = tested on: HCT-116
SNB-19 = tested on: SNB-19
SN12C = tested on: SN12C
MDA-N = tested on: MDA-N
SK-MEL-2 = tested on: SK-MEL-2
SNB-75 = tested on: SNB-75
UACC-257 = tested on: UACC-257
DU-145 = tested on: DU-145
SF-268 = tested on: SF-268
TK-10 = tested on: TK-10
UACC-62 = tested on: UACC-62
786-0 = tested on: 786-0
HCC 2998 = tested on: HCC 2998
OVCAR-3 = tested on: OVCAR-3
BT-549 = tested on: BT-549
MDA-MB-435 = tested on: MDA-MB-435
UO-31 = tested on: UO-31
EKVX = tested on: EKVX
SK-OV-3 = tested on: SK-OV-3
M14 = tested on: M14
CAKI-1 = tested on: CAKI-1
NCI/ADR-RES = tested on: NCI/ADR-RES
Malme-3M = tested on: Malme-3M
KM12 = tested on: KM12
SR = tested on: SR
NCI-H226 = tested on: NCI-H226
OVCAR-5 = tested on: OVCAR-5
MDA-MB-231 = tested on: MDA-MB-231
CCRF-CEM = tested on: CCRF-CEM
SF-295 = tested on: SF-295
HOP-92 = tested on: HOP-92
NCI-H23 = tested on: NCI-H23
A498 = tested on: A498
SK-MEL-5 = tested on: SK-MEL-5
SK-MEL-28 = tested on: SK-MEL-28
HL-60 = tested on: HL-60
HT-29 = tested on: HT-29
U-251 = tested on: U-251
COLO 205 = tested on: COLO 205
RPMI-8226 = tested on: RPMI-8226
HCT-15 = tested on: HCT-15
RXF 393 = tested on: RXF 393
PC-3 = tested on: PC-3
OVCAR-4 = tested on: OVCAR-4
HOP-62 = tested on: HOP-62
A549 = tested on: A549
ACHN = tested on: ACHN
NCI-H522 = tested on: NCI-H522
MCF7 = tested on: MCF7
K562 = tested on: K562
SW-620 = tested on: SW-620
IGROV-1 = tested on: IGROV-1
MOLT-4 = tested on: MOLT-4
SF-539 = tested on: SF-539

With `S=C(S)NCCN1CCNCC1` the GI50 (Hs-578T) was > 100 µM (inactive), the GI50 (NCI-H460) was 34.6 µM (inactive) and the GI50 (T47D) was 10.7 µM (inactive). For the same molecule, the GI50 (LOX IMVI) was 40.1 µM (inactive), the GI50 (OVCAR-8) was 28.9 µM (inactive) and the GI50 (HCT-116) was 27.9 µM (inactive). The GI50 (SNB-19) was > 100 µM (inactive), the GI50 (SN12C) was 49.2 µM (inactive) and the GI50 (MDA-N) was 37.2 µM (inactive). For the same molecule, the GI50 (SK-MEL-2) was 67.1 µM (inactive), the GI50 (SNB-75) was > 100 µM (inactive) and the GI50 (UACC-257) was 20.7 µM (inactive). The GI50 (DU-145) was 36.1 µM (inactive), the GI50 (SF-268) was 99.3 µM (inactive) and the GI50 (TK-10) was 20.8 µM (inactive). For the same molecule, the GI50 (UACC-62) was 84.9 µM (inactive), the GI50 (786-0) was 22.3 µM (inactive) and the GI50 (HCC 2998) was 22.7 µM (inactive). For the same molecule, the GI50 (OVCAR-3) was 22.4 µM (inactive), the GI50 (BT-549) was 88.1 µM (inactive) and the GI50 (MDA-MB-435) was 62.1 µM (inactive). For the same molecule, the GI50 (UO-31) was 29.7 µM (inactive), the GI50 (EKVX) was 57.1 µM (inactive) and the GI50 (SK-OV-3) was > 100 µM (inactive). The GI50 (M14) was 31.2 µM (inactive), the GI50 (CAKI-1) was 39.5 µM (inactive) and the GI50 (NCI/ADR-RES) was > 100 µM (inactive). The GI50 (Malme-3M) was 25.4 µM (inactive), the GI50 (KM12) was > 100 µM (inactive) and the GI50 (SR) was 24.5 µM (inactive). For the same molecule, the GI50 (NCI-H226) was > 100 µM (inactive), the GI50 (OVCAR-5) was > 100 µM (inactive) and the GI50 (MDA-MB-231) was > 100 µM (inactive). For the same molecule, the GI50 (CCRF-CEM) was 21.1 µM (inactive), the GI50 (SF-295) was > 100 µM (inactive) and the GI50 (HOP-92) was 75.9 µM (inactive). The GI50 (NCI-H23) was > 100 µM (inactive), the GI50 (A498) was > 100 µM (inactive) and the GI50 (SK-MEL-5) was 52.1 µM (inactive). For the same molecule, the GI50 (SK-MEL-28) was > 100 µM (inactive), the GI50 (HL-60) was < 10 nM (active) and the GI50 (HT-29) was 59.7 µM (inactive). The GI50 (U-251) was > 100 µM (inactive), the GI50 (COLO 205) was 18 µM (inactive) and the GI50 (RPMI-8226) was 18.6 µM (inactive). For the same molecule, the GI50 (HCT-15) was 47.8 µM, the GI50 (RXF 393) was 19.8 µM (inactive) and the GI50 (PC-3) was 34.3 µM (inactive). The GI50 (OVCAR-4) was > 100 µM (inactive), the GI50 (HOP-62) was > 100 µM (inactive) and the GI50 (A549) was > 100 µM (inactive). For the same molecule, the GI50 (ACHN) was 36.7 µM (inactive), the GI50 (NCI-H522) was 14.7 µM (inactive) and the GI50 (MCF7) was 40 µM (inactive). The GI50 (K562) was 24.4 µM (inactive), the GI50 (SW-620) was 20.7 µM (inactive) and the GI50 (IGROV-1) was 49.5 µM (inactive).

With `COc1cc2nc(-c3c(F)cccc3F)n(Cc3c(F)cccc3F)c2cc1Cc1c(F)cccc1F` the GI50 (Hs-578T) was > 20.5 µM (inactive), the GI50 (NCI-H460) was 15.3 µM (inactive) and the GI50 (T47D) was 4.05 µM (inactive). The GI50 (LOX IMVI) was > 100 µM (inactive), the GI50 (OVCAR-8) was > 100 µM (inactive) and the GI50 (HCT-116) was > 26.7 µM (inactive). The GI50 (MOLT-4) was 6.84 µM (inactive), the GI50 (SNB-19) was > 100 µM (inactive) and the GI50 (SN12C) was > 69.8 µM (inactive). The GI50 (MDA-N) was > 100 µM (inactive), the GI50 (SK-MEL-2) was > 49.8 µM (inactive) and the GI50 (SNB-75) was 2.74 µM (inactive). The GI50 (DU-145) was > 100 µM (inactive), the GI50 (SF-268) was > 72.1 µM (inactive) and the GI50 (TK-10) was > 100 µM (inactive). For the same molecule, the GI50 (UACC-62) was 2.64 µM (inactive), the GI50 (786-0) was > 100 µM (inactive) and the GI50 (HCC 2998) was 20.6 µM (inactive). The GI50 (OVCAR-3) was 4.73 µM (inactive), the GI50 (BT-549) was > 71.8 µM (inactive) and the GI50 (MDA-MB-435) was 8.59 µM (inactive). For the same molecule, the GI50 (UO-31) was 9.1 µM (inactive), the GI50 (EKVX) was 16.9 µM (inactive) and the GI50 (SK-OV-3) was > 100 µM (inactive). For the same molecule, the GI50 (M14) was > 24.3 µM (inactive), the GI50 (CAKI-1) was 8.77 µM (inactive) and the GI50 (NCI/ADR-RES) was > 100 µM (inactive). For the same molecule, the GI50 (Malme-3M) was > 24.8 µM (inactive), the GI50 (KM12) was 3.77 µM (inactive) and the GI50 (SR) was > 20.4 µM (inactive). For the same molecule, the GI50 (NCI-H226) was > 28.6 µM (inactive), the GI50 (OVCAR-5) was > 100 µM (inactive) and the GI50 (MDA-MB-231) was 27.7 µM (inactive). For the same molecule, the GI50 (CCRF-CEM) was > 100 µM (inactive), the GI50 (SF-295) was > 100 µM (inactive) and the GI50 (HOP-92) was 2.79 µM (inactive). The GI50 (NCI-H23) was > 100 µM (inactive), the GI50 (SF-539) was > 68.7 µM (inactive) and the GI50 (A498) was 3.62 µM (inactive). The GI50 (SK-MEL-5) was 6.28 µM (inactive), the GI50 (SK-MEL-28) was 0.35 µM (active) and the GI50 (HT-29) was 3.53 µM (inactive). The GI50 (U-251) was > 100 µM (inactive), the GI50 (COLO 205) was > 100 µM (inactive) and the GI50 (RPMI-8226) was 7.71 µM (inactive). The GI50 (HCT-15) was > 100 µM, the GI50 (RXF 393) was 1.55 µM (inactive) and the GI50 (PC-3) was > 100 µM (inactive). The GI50 (OVCAR-4) was 1.84 µM (inactive), the GI50 (HOP-62) was > 100 µM (inactive) and the GI50 (A549) was > 47.8 µM (inactive). For the same molecule, the GI50 (ACHN) was > 42.6 µM (inactive), the GI50 (NCI-H522) was 10 µM (inactive) and the GI50 (MCF7) was 3.47 µM (inactive). The GI50 (K562) was > 28.6 µM (inactive), the GI50 (SW-620) was > 100 µM (inactive) and the GI50 (IGROV-1) was 0.292 µM (active).
